Data as given in the NIST ThermoML archive (doi:10.1021/je8004062).

Test: mn = molality of the nth substance listed, in mol/kg
Conditions: 101 kPa, Liquid

[Cl-].[Cl-].[Cl-].[La+3] [lanthanum chloride] + O
Conditions	mass density, 293.15 K [kg/m3]	mass density, 298.15 K [kg/m3]	mass density, 303.15 K [kg/m3]	viscosity, 293.15 K [mPa·s]	viscosity, 298.15 K [mPa·s]	viscosity, 303.15 K [mPa·s]
m1 = 0.0996	1020.8	1019.4	1018	1.068	0.9503	0.8517
m1 = 0.1997	1043.7	1042.1	1040.4	1.109	0.9881	0.8863
m1 = 0.2997	1065.6	1063.8	1062	1.176	1.049	0.9414
m1 = 0.3994	1086.9	1085	1083.2	1.255	1.12	1.006
m1 = 0.4984	1107.7	1105.8	1103.9	1.34	1.196	1.075
m1 = 0.6	1128.9	1126.9	1125	1.432	1.279	1.149
m1 = 0.6981	1149.1	1147.2	1145.3	1.524	1.361	1.224
m1 = 0.7983	1169.6	1167.7	1165.8	1.621	1.447	1.301
m1 = 0.9256	1195.5	1193.7	1191.8	1.745	1.558	1.402
m1 = 1.201	1251.1	1249.5	1247.8	2.02	1.804	1.624

[Cl-].[Na+] [sodium chloride] + O
Conditions	mass density, 293.15 K [kg/m3]	mass density, 298.15 K [kg/m3]	mass density, 303.15 K [kg/m3]	viscosity, 293.15 K [mPa·s]	viscosity, 298.15 K [mPa·s]	viscosity, 303.15 K [mPa·s]
m1 = 0.2076	1006.3	1005.7	1004	1.012	0.9082	0.8115
m1 = 0.3959	–	1013.2	1011.7	1.031	0.9237	0.8306
m1 = 0.5997	1022	1021.2	–	1.054	0.9408	0.8489
m1 = 0.7817	1029	1028.1	1026.4	1.073	0.9565	0.8638
m1 = 1.01	1037.6	–	1034.8	1.098	0.9769	0.8825
m1 = 1.199	1044.5	1043.4	1041.4	1.117	0.9944	0.898
m1 = 1.502	1055.4	1054.3	1052.3	1.151	1.024	0.9236
m1 = 1.794	1065.7	1064.5	1062.5	1.184	1.054	0.9496
m1 = 2.004	1073.1	1071.8	1069.7	1.208	1.077	0.9695
m1 = 2.409	1086.9	1085.5	1083.4	1.256	1.124	1.011
m1 = 3	1106.5	1105	1102.7	1.332	1.2	1.08
m1 = 3.595	1125.5	1123.8	1121.4	1.412	1.288	1.162
m1 = 4.186	1143.5	1141.7	1139.2	1.496	1.385	1.256
m1 = 4.812	1162.1	1160	1157.5	1.592	1.502	1.373
